According to PubChem BioAssay (NCI):
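Method: 48-hour compound exposure of cells in 96-well plates, five concentrations, linear interpolation of endpoints. GI50 = concentration required for 50% inhibition of growth. TGI is the concentration that stops growth completely.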

Key:
Assay in all cases: NCI tumour cell line growth inhibition, 48 h
SK-OV-3 ovarian = test system: SK-OV-3 ovarian
M14 melanoma = test system: M14 melanoma
TK-10 renal = test system: TK-10 renal
U251 CNS = test system: U251 CNS
LOX IMVI melanoma = test system: LOX IMVI melanoma
NCI-H460 lung = test system: NCI-H460 lung
SR leukemia = test system: SR leukemia
HL-60(TB) leukemia = test system: HL-60(TB) leukemia
KM12 colon = test system: KM12 colon
EKVX NSCLC = test system: EKVX NSCLC

Compound	TGI (SK-OV-3 ovarian) [µM]	TGI (M14 melanoma) [µM]	TGI (TK-10 renal) [µM]	TGI (U251 CNS) [µM]	TGI (LOX IMVI melanoma) [µM]	TGI (NCI-H460 lung) [µM]	TGI (SR leukemia) [µM]	TGI (HL-60(TB) leukemia) [µM]	TGI (KM12 colon) [µM]	GI50 (SK-OV-3 ovarian) [µM]	GI50 (M14 melanoma) [µM]	GI50 (EKVX NSCLC) [µM]	TGI (EKVX NSCLC) [µM]	GI50 (TK-10 renal) [µM]	GI50 (U251 CNS) [µM]	GI50 (NCI-H460 lung) [µM]	GI50 (KM12 colon) [µM]	GI50 (LOX IMVI melanoma) [µM]	GI50 (HL-60(TB) leukemia) [µM]
C[N+](C)(C)CC1CCCCC1O (configuration not stated)	> 100	> 100	> 100	> 100	> 100	> 100	> 100												
COc1ccc(CN2CCC/C=C/CC(Cl)(Cl)C2=O)cc1	> 100	57	> 100	> 100	> 100	> 100	68.8	69.2	> 100										
C[C@H]1CCCC(O)C(O)[C@@H]2C[C@H](O[Si](C)(C)C(C)(C)C)C[C@H]2[C@H](O[Si](C)(C)C(C)(C)C)C(O)C(O)C(=O)O1 (some centres not stated)	> 100	> 100	43.2	30.9		23.9			> 100	54.6	39.1	26.1	72.3	17.2	12.7	11	37.5		
CSc1nnc(COc2ccc(Cl)cc2)o1	> 100	> 100	> 100	> 100	> 100	> 100			> 100				> 100						
CC(C)(C)C(=O)[CH-]C(=O)C(C)(C)C.CC(C)(C)C(=O)[CH-]C(=O)C(C)(C)C.CN(C)c1ccc([O-])cc1.CN(C)c1ccc([O-])cc1.[Ti+4]	> 100	> 100		> 100	> 100	> 100		> 100	> 100	> 100	60.8	> 100	> 100		43.1	> 100	64.8	> 100	> 100
Cn1c2c(c3ccccc31)CCN(CCN1CCN(c3cccc(Cl)c3)CC1)C2=O	> 100	> 100	> 100	> 100	> 100			65.3					> 100						
Cc1c2ccccc2cc2ccc3oc([N+](=O)[O-])cc3c12	> 100	> 100	> 100	> 100	> 100	> 100		> 100	> 100				> 100						
O=c1oc2ccccc2[n+]([O-])c1-c1ccccc1	> 100	> 100	> 100	> 100	> 100	> 100		> 100	> 100				> 100						
CC(C)(Oc1ccc(/C=C/C(=O)c2ccc(Cl)cc2)cc1)C(=O)Nc1c(Cl)cccc1Cl	> 100	36.7	> 100	26.7	31	98.3	> 100		25				> 100						
O=C(N/N=C/c1cccc(F)c1)c1ccncc1	> 100	> 100	> 100	> 100	> 100	> 100	> 100	> 100	> 100										
